According to patent publication US20060025430A1, “Novel irreversible inhibitors of epidermal growth factor receptor tyrosine kinase and uses thereof for therapy and diagnosis” (priority 2003, published 2006):
Entries after “also recorded” stand apart in the source; their conditions may differ.

Experiments:
EGFR-TK [1] = molecular target: T1, EGFR-TK (Homo sapiens, UniProt P00533); assay: EGFR-TK autophosphorylation inhibition in intact A431 cells (irreversibility assay, Western blot); assay type: cell-based; settings: for nature of binding to the receptor (irreversibility): intact A431 cells, inhibition 8 hours post incubation
T1 construct: The supernatant, which contained the EGFR, was collected and frozen; endogenous in cells; host or cells: A431 cells (A1: Triton X-100 lysate captured on mAb108; A2: intact cells)
T1 sequence (P00533 25-1210): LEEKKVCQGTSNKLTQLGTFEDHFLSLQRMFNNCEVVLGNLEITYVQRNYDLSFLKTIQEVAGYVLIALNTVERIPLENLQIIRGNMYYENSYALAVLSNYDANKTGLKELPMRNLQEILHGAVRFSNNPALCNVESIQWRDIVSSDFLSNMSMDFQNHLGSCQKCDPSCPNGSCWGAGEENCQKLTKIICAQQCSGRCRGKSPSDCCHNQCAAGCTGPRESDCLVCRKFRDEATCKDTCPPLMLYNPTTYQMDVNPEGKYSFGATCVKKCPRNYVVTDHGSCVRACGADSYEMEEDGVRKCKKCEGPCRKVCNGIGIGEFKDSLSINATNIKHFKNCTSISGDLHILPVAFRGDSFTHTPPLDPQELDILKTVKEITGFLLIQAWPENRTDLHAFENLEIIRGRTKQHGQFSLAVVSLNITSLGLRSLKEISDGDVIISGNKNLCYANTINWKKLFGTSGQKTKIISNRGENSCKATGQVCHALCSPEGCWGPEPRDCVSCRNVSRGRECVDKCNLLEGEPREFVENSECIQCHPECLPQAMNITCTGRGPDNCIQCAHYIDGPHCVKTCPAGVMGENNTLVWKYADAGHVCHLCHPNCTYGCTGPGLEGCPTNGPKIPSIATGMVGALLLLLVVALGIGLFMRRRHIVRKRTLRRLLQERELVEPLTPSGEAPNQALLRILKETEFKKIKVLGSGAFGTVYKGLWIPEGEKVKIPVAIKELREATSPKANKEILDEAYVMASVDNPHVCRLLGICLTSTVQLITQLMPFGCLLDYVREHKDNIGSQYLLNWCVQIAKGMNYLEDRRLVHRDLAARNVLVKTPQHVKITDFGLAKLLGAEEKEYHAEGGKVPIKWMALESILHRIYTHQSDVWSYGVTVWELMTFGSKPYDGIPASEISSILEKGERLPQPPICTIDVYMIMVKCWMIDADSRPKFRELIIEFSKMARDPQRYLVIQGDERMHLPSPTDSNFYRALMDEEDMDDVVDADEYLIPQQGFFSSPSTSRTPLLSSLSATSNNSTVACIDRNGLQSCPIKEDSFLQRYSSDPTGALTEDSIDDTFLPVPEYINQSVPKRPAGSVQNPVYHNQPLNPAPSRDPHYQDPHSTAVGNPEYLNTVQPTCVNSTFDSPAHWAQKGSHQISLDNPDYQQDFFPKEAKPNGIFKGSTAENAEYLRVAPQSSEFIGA
Method: A431 cells (5×10^5) were seeded in 6-well plates and grown for 24 hours to about 90% confluence in DMEM (high glucose) containing 10% fetal calf serum (FCS) and antibiotics at 37° C. The cells were then exposed to serum-free medium, at 37° C., for 18 hours.
[…] The medium was replaced thereafter with an inhibitor/FCS-free medium and the cells were divided into two groups: cells of the first group were immediately stimulated with EGF (20 ng/ml) for 5 minutes and then washed with PBS, while cells of the second group were incubated for additional 8 hours, at 37° C. During the 8 hours period, the medium was changed three times (after 2, 4 and 8 hours). After the post-incubation period, the cells of the second group were stimulated with EGF (20 ng/ml) for 5 minutes and then washed with PBS.
Identical protein amounts from each lysate sample were loaded onto polyacrylamide gel (6% or 10%), separated by electrophoresis (Hoefer Pharmacia Biotech Inc., San Francisco, USA) and transferred to nitrocellulose membrane (power supply: EPS 500/400, Amersham Pharmacia Biotech; nitrocellulose extra blotting membranes: Sartorius AG, Goettingen, Germany). A standard high molecular weight solution was loaded as a reference. For visualization of molecular weight bands, the membrane was immersed in Ponceau reagent (0.05% Ponceau, 5% acetic acid) for a few minutes, and then washed twice with TTN (10 mM Tris pH 7.4, 0.2% TWEEN 20, 170 mM NaCl) and once with water. The membrane was blocked overnight in TTN containing 5% milk (1% fat) (blocking TTN) and incubated for 90 minutes with PY20 antiphosphotyrosine antibody (Santa Cruz Biotechnology Inc., Santa Cruz, USA) diluted 1:2,000 in blocking TTN. The membrane was then washed with TTN (3×5 minutes), incubated for 90 minutes with a horseradish peroxidase-conjugated secondary antibody (Goat anti-mouse IgG H+L, Jackson ImResearch Laboratories, Inc., diluted 1:10,000 in blocking TTN), and finally washed again with TTN (3×5 minutes).
After the incubation, the media was replaced with inhibitor/FCS-free media and the inhibition effect was measured either immediately thereafter or after 8 hours post incubation.

EGFR = molecular target: T2, EGFR (Homo sapiens, UniProt P00533); assay: Selective-inhibition assay in DHER14 cells (receptor phosphotyrosine, Western blot); assay type: cell-based; settings: DHER14 cells expressing EGFR, 1 hour incubation, EGF stimulation
T2 construct: expressed in transfected cells; host or cells: NIH3T3 (DHER14 cells)
T2 sequence (P00533 25-1210): as above
Method: (§1) NIH3T3 cells transformed with either the EGFR (DHER14 cells), with the HER1-HER2 chimera (CSH12 cells) or with the PDGFR (NIH/PDGFR cells), decribed by Lee et al.; 1989, Honegger et al., 1988; and Shawver et al. 1997, and A431 human epidermoid vulval carcinoma cells were grown in Dulbecco's modified Eagle's medium (DMEM) (Biological industries, Kibbuts Beit Haemek, Israel) supplemented with 10% fetal calf serum and antibiotics (penicillin […], streptomycin 100 mg/liter) at 37° C. in 5% CO2.
(§2) Selective-inhibition assay: CSH12, DHER14 and […] cells, expressing either the HER1-HER2 chimera, EGFR or PDGFR, respectively, were used for the determination of inhibitory selectivity. Cells (7.5×10^4) were grown in 6-well plates (35 mm diameter, Nalge Nunc) for 24 hours and then incubated in 0.25% FCS-containing medium for an additional 24 hours to about 90% confluence. Duplicate sets of cells were treated with the tested compounds at varying concentrations for 1 hour. The final concentration of the vehicle in the medium was 0.05% DMSO, 0.1% EtOH. After removal of the inhibitor from the medium, PBS wash (×2) and addition of 0.25% serum-containing medium to the wells, the cells were stimulated with either 20 ng/mL human EGF for 5 minutes (CSH12 and DHER14 cells) or 50 ng/ml human PDGFββ for 10 minutes ([…] cells) at 37° C. […]

PDGFR = PDGFR (Homo sapiens, UniProt P09619); assay: Selective-inhibition assay in […] cells (receptor phosphotyrosine, Western blot); assay type: cell-based; settings: […] cells expressing PDGFR, 1 hour incubation, PDGFββ stimulation
PDGFR, sequence (P09619 whole entry): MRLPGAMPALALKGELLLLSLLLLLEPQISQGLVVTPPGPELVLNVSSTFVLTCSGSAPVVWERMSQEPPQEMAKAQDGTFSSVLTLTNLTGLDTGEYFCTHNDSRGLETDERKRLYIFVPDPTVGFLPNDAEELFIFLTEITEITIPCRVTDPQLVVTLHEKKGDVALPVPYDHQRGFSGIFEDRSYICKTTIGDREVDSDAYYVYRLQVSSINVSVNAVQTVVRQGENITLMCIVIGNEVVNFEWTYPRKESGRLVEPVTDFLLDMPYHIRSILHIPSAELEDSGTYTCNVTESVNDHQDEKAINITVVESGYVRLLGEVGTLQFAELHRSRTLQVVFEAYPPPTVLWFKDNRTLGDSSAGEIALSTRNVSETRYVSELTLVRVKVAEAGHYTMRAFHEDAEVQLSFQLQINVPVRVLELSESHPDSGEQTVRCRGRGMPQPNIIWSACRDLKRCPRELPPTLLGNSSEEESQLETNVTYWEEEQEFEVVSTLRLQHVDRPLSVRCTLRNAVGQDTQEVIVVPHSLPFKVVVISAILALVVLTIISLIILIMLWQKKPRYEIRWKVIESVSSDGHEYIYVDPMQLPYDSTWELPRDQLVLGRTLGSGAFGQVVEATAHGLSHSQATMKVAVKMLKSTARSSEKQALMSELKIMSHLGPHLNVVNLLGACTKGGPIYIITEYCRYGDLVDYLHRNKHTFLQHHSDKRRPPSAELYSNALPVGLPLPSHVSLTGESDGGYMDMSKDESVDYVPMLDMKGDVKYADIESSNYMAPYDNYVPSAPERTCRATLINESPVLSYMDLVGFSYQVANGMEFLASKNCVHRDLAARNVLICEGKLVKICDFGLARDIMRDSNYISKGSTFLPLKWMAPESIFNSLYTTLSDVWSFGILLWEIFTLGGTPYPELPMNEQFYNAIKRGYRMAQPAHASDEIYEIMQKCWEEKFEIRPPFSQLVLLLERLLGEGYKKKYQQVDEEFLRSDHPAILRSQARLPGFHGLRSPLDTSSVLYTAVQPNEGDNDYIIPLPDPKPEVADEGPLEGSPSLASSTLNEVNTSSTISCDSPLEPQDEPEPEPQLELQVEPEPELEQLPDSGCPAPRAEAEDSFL
Method: as §1, §2

[2] = Challenge reaction with reduced glutathione (HPLC conversion to conjugates); assay type: physicochemical; settings: even at temperatures exceeding 100° C.
[3] = as above; assay type: physicochemical
Method: Standard solutions were prepared by dissolving compound 5, Compound 6 and {4-[(3,4-dichloro-6-fluorophenyl)amino]quinazol ine-6-yl}acrylamide (0.0146 mmol) in 1.75 ml of THF: MeOH (1:2) and glutathione (18 mg, 0.0586 mmol) in 0.5 ml of water. A 300 μL aliquot of the quinazoline standard solution (2.5 μmol) was diluted with 689 μL of THF:MeOH:H2O (1:2:1), after which 11 μL (1.25 μmol) of glutathione solution and 5.22 μL (30 μmol) of N,N′-diisopropylethylamine were added. Conversions of the quinazolines and formation of conjugates at different time points were measured by HPLC using RP (3.9×300 mm) column (mobile phase of acetonirile and acetate buffer 0.1 M (2:3) at a flow rate of 1 ml/min was used herein). The glutathione conjugates were further detected by MS.
As discussed hereinabove, EGFR blockade by irreversible inhibitors is due to the nucleophilic attack of the sulfhydryl group of Cys-773 at the receptor's ATP binding pocket on the reactive chemical group of the EGFR targeted inhibitor. In order to evaluate the chemical reactivity of the novel irreversibly EGFR inhibitors decribed herein, the degree of reactivity of the inhibitors towards the sulfhydryl group of reduced glutathione (GSH) as a nucleophile was tested. Thus, Compound 5, Compound 6 and {4-[(3,4-dichloro-6-fluorophenyl)amino]quinazoline-6-yl}acrylamide were dissolved in THF: MeOH: H2O (1:2:1), and were reacted at room temperature with half an equivalent of reduced glutathione in the presence of 12 equivalents of N,N-diisopropylethylamine. Identical aliquots of the reaction mixtures were taken at various time points and injected into reversed-phase HPLC in order to determine the conversion-rate of the various compounds into glutathione-conjugates. The characteristics of the products were determined using MS.
A study of the reaction rate as a function of the temperature was also performed. Thus, the reaction ws performed at various temperatures ranging from 0° C. and 60° C. The following activation parameters were generated: For {4-[(3,4-dichloro-6-fluorophenyl)amino]quinazoline-6-yl}acrylamide: Ea=5.24 kCalmol^−1, ΔH^#25° C.=4.64 kCalmol^−1 and ΔS^#25° C.=−61.24 Calmol^−1K^−1. For compound 5: Ea=11.4 kCalmol^−1, ΔH^#25° C.=10.80 kCalmol^−1 and ΔS^#25° C.=−41.29 Calmol^−1K^−1.
The reaction rate was calculated using the following rate equation: [formula] kobs=Ae^−Ea/RT

EGFR-TK [4] = molecular target: T1, EGFR-TK; assay: EGFR-TK autophosphorylation inhibition in A431 cell lysate (ELISA); assay type: biochemical; settings: read-out: A431 lysate IC50 app
Method: All the following incubations were performed at room temperature and with constant shaking. […] The final volume for each well was 150 μl.
In this step the temperature was kept at 26° C. and the plate was under constant shaking. The incubation with ATP/MnCl2 was for 5 minutes.
Afterward, polyclonal anti-phosphotyrosine serum (Sugen, Inc.) was added (dilution of antibody in TBST containing 5% milk). The incubation was for 45 minutes.

[5] = Intact A431 cells IC50 range (1 hr post incubation with inhibitor), 1 hour incubation with inhibitor, medium replaced, EGF stimulation immediately
[6] = Intact A431 cells IC50 range (8 hr post incubation with inhibitor), 1 hour incubation, then 8 hours in inhibitor-free medium before EGF stimulation

melting point | IC50 (EGFR-TK [1]; [5]) | IC50 (EGFR-TK [1]; [6]) | IC50 (EGFR-TK [4]) | SMILES | also measured
> 300 °C |  |  |  | O=C(CCl)Nc1ccc2ncnc(Nc3cccc(Br)c3)c2c1 [Compound 1, N-{4-[(3-bromophenyl)amino]-quinazolin-6-yl}-2-chloroacetamide] | 
190 to 191 °C |  |  |  | COCC(=O)Nc1ccc2ncnc(Nc3cccc(Br)c3)c2c1 [Compound 2, N-{4-[(3-bromophenyl)amino]-quinazolin-6-yl}-2-methoxyacetamide] | 
> 300 °C |  |  |  | O=C(CCl)Nc1ccc2ncnc(Nc3cccc(I)c3)c2c1 [Compound 3, N-{4-[(3-iodophenyl)amino]-quinazolin-6-yl}-2-chloroacetamide] | 
 |  |  |  | COCC(=O)Nc1ccc2ncnc(Nc3cccc(I)c3)c2c1 [Compound 4, N-{4-[(3-iodophenyl)amino]-quinazolin-6-yl}-2-methoxyacetamide] | nature of binding to the receptor (irreversibility) (EGFR-TK [1]): partial irreversible
204 to 206 °C |  |  |  | COCC(=O)Nc1ccc2ncnc(Nc3cc(Cl)c(Cl)cc3F)c2c1 [Compound 6, N-{4-[(4,5-Dichloro-2-fluoro-phenyl)amino]-quinazolin-6-yl}-2-methoxyacetamide] | nature of binding to the receptor (irreversibility) (EGFR-TK [1]): partial irreversible; IC50 (EGFR): > 250 nM; IC50 (PDGFR): > 1000 nM; change in the reaction rate with GSH with temperature [2]: no change in the reaction rate; also recorded: could not be detected
 |  |  |  | C=CC(=O)Nc1ccc2ncnc(Nc3cc(Cl)c(Cl)cc3F)c2c1 [Compound A, N-{4-[(3,4-dichloro-6-fluorophenyl)amino]quinazoline-6-yl}acrylamide, reference compound] | ΔH^# 25° C. of reaction with reduced glutathione ([3]; 25° C.): 4.64 kCalmol^−1; ΔS^# 25° C. of reaction with reduced glutathione ([3]; 25° C.): −61.24 Calmol^−1K^−1; reaction rate constant with reduced glutathione ([3]; room temperature, THF:MeOH:H2O (1:2:1), half an equivalent GSH, 12 equivalents N,N-diisopropylethylamine): 0.0001 M/min; activation energy Ea of reaction with reduced glutathione ([3]; temperatures from 0° C. to 60° C.): 5.24 kCalmol^−1
 | 5 to 50 nM | 5 to 50 nM |  | C=CC(=O)Nc1ccc2ncnc(Nc3cc(Cl)c(Cl)cc3F)c2c1 [drawing 14] | IC50 (EGFR-TK [4]; apparent IC50, ELISA, 5 μM ATP/5 mM MnCl2, average of four dose-response curves): 0.037 nM
 | 1000 to 20000 nM | > 80000 nM | 65 nM | COCC(=O)Nc1ccc2ncnc(Nc3cccc(I)c3)c2c1 [drawing 18] | 
 | 1 to 20 nM | 1 to 20 nM | 5.55 nM | O=C(CCl)Nc1ccc2ncnc(Nc3cc(Cl)c(Cl)cc3F)c2c1 [drawing 19] | 
 |  | 10000 to 50000 nM | 113 nM | COCC(=O)Nc1ccc2ncnc(Nc3cc(Cl)c(Cl)cc3F)c2c1 [drawing 20] | 
